Experimental data reported in publication PMC7576608, “Mechanisms of telomerase inhibition by oxidized and therapeutic dNTPs” (Nature Communications, 2020).

Assays:
[1] = molecular target: telomerase (Homo sapiens, UniProt O14746); assay: Telomerase extension of 32P-end labeled primers with a single dNTP (percent primer extension); format: biochemical; design: made in house; anti-FLAG immunopurification, eluted with 3xFLAG peptide; details: for Percent Primer Extension: 50 μM single dNTP
Description: A chain terminating mechanism of inhibition requires that the enzyme adds the modified dNTP to a growing chain, which then blocks further synthesis. […] To test whether telomerase can incorporate other modified dNTPs, and whether the incorporation is chain terminating and/or mutagenic, we conducted direct extension assays in which we radiolabeled the primer and added increasing concentrations (5, 50, and 500 μM) of a single dNTP (Supplementary Figs. 3, 5, 6, and 7). Since modified dNTPs may prefer mispairing, we tested various primers in which the first template base was either rA3, rC1, or rU5 (primer 1, primer 2, and primer 3, respectively), and compared the percent primer extension for each dNTP at the middle 50 μM concentration (Fig. 3). Primers 1 and 2 initiate synthesis at consecutive rA3rA4 or rC1rC2 template bases, respectively, so we could examine both incorporation and extension to the next base. However, the telomerase template lacks tandem rU residues.
Fig. 3 Telomerase insertion of modified dNTPs. Telomerase reactions were conducted with 5 nM ^32P-end labeled primer a Primer 1 (TTAGGG)3, b Primer 2 (GGTTAG)3, or c Primer 3 (AGGGTT)3. Reactions contained cellular-concentration dNTPs (lane 1) or 50 μM of indicated natural dNTP (blue, lanes 2–5), oxidized dNTP (red, lanes 6–8), or therapeutic dNTP (green, lanes 9–11). Products were separated on denaturing gels. […] Letters on the right indicate the template base; P indicates unextended 18-mer primer. Graphs represent the percent of total primers extended. Images are representative of, and data are shown as mean ± s.d. from, three independent experiments. Source data are provided as a Source Data file.
(§1) An equal volume of loading buffer (94% formamide, 0.1× TBE, 0.1% bromophenol blue, 0.1% xylene cyanol) was added to the reaction eluent. The samples were heat denatured for 10 min at 100 °C and loaded onto a 14% denaturing acrylamide gel (7 M urea, 1× TBE) and electrophoresed for 90 min at constant 38 W. Samples were imaged using a Typhoon phosphorimager (GE Healthcare). Percent primer extension was calculated with ImageQuant TL 8.2 by measuring the intensity of each product band and dividing by the total radioactivity in the lane or total products, as indicated in the figure legends.
Telomerase reactions were conducted with 5 nM 32P-end labeled primer (a) Primer 1 (TTAGGG)3, (b) Primer 2 (GGTTAG)3, or (c and d) Primer 3 […]
(d) reactions contained 3 µg/µl RNase A. Products were separated on denaturing gels. Letters on the right indicate the template base; P indicates unextended 18-mer primer. Graphs represent the percent of total primers extended for the reactions in panels a – c from one experiment. Panel d is a representative image from three independent experiments. Source data are provided as a Source Data file. […]
Supplementary Fig 4. Time course reactions with telomerase or pol β. (a, b) Telomerase reactions were conducted with 5 nM 32P-end labeled primer (a) Primer 4 (GTTAGG)3 or (b) Primer 2 (GGTTAG)3.
Products were separated on denaturing gels. Letters on the right indicate the template base; P indicates […]
unextended 18-mer primer. […]

[2] = system: telomerase; assay: Direct telomerase assay in the absence or presence of POT1-TPP1 (processivity R1/2); format: biochemical, human; details: analog substituted for its natural dNTP
Source text: Next we tested whether the telomerase processivity factor POT1–TPP1 modulates modified dNTP inhibition of telomerase. POT1 binds to the telomeric ssDNA overhang, requiring the minimum sequence of 5′-[…]-3′[38]. Inclusion of POT1-binding partner TPP1, increases the binding affinity for telomeric DNA ten-fold compared to POT1 alone. POT1–TPP1 recruits telomerase to telomeres in vivo[39], and greatly increases telomerase repeat processivity. Therefore, we reasoned that POT1–TPP1 may overcome inhibition by the modified dNTPs and enhance telomerase processivity. We conducted telomerase extension reactions with radiolabeled primer in the presence of POT1–TPP1, and used a primer with a single mutation ([…]; underlined G to C mutation)[40] to ensure POT1–TPP1 is positioned at the 5′ portion of the primer (Fig. 5). This provides a homogenous substrate for telomerase extension.
For these reactions, we replaced the natural dNTP with the modified dNTP analog, while the other dNTPs remained at cellular relevant concentrations.
Direct telomerase assays were conducted in the absence or presence of 500 nM POT1 and 500 nM TPP1, as indicated, and 5 nM ^32P-end labeled primer ([…]) designed to position POT1 at the 10 nt primer 5′ end. Reactions contained cellular-concentration dNTPs (lanes 1 and 2), except when the natural dNTP was substituted with the oxidized dNTP a or therapeutic dNTP b analog (lanes 3–8), as indicated. […] Letters on the right indicate template base; P indicates unextended 18-mer primer. c Processivity was calculated on the basis of total products normalized to loading control. Images are representative of, and data are shown as mean ± s.d. from 3 to 5 independent experiments. Source data are provided as a Source Data file.
as §1, with “The reactions were started by the addition of 3 μl of immunopurified telomerase eluent, incubated at 37 °C for 1 h, then terminated with 2 μl of […] and heat inactivated at 65 °C for 20 min. An” for “An”
The processivity was calculated as described[40],[67]. Repeat processivity from the direct telomerase extension assays was calculated as R1/2 (equivalent to the half-time for decay in an exponential time course), which represents the median length of DNA product formed, expressed in terms of number of telomere repeats. First, the total volume counts for each product band extend by one or more telomere repeats were obtained using Image Quant TL. The volume counts were then normalized by dividing by the number of radiolabeled guanosines incorporated into the extended products based on the number of repeats added, termed corrected volume (corr vol). The “percent left behind” (%LB) was calculated for each product band by summing the counts for that product band and for every product band below (shorter products), divided by the total counts for the lane, and then multiplied by 100. The natural log of (100−%LB) was calculated and then plotted vs. repeat number for each product length. A linear regression line was fit to the data to determine the slope of the line.

[3] = Primer 2 (GGTTAG)3, first template base rC1, Mean of three experiments

telomerase (Homo sapiens, UniProt O14746), sequence (O14746 whole entry): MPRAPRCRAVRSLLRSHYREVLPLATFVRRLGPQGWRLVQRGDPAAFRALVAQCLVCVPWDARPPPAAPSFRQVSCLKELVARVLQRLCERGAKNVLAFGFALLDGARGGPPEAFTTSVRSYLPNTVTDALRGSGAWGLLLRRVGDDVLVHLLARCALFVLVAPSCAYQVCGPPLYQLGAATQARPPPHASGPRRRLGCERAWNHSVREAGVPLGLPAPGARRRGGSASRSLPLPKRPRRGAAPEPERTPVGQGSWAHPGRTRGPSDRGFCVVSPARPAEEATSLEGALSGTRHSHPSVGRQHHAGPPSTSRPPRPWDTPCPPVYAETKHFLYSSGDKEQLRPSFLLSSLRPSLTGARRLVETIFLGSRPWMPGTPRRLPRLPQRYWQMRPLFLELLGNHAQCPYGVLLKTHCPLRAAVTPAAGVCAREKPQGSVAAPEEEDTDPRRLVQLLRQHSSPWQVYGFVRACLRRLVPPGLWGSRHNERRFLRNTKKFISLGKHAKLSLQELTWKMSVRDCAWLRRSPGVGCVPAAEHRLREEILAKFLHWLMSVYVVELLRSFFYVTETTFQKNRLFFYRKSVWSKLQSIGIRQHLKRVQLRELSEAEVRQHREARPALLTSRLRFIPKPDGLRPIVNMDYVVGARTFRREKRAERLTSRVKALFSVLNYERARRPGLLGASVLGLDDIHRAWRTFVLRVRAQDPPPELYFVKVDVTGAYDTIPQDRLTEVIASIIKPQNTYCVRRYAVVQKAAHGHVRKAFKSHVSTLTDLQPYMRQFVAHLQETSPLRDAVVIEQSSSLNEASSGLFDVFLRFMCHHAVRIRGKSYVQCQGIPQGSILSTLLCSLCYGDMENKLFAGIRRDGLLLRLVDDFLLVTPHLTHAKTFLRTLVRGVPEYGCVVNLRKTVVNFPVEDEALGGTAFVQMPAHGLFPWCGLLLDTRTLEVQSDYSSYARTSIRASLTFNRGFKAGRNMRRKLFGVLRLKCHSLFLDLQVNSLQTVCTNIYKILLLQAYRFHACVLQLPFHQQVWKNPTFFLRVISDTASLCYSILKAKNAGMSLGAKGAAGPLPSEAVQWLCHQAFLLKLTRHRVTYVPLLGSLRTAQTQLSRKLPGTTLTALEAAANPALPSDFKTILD

Compound: Nc1nc2c(ncn2C2CC(O)C(COP(=O)(O)OP(=O)(O)OP(=O)(O)O)O2)c(=O)[nH]1 (stereo not drawn) [dGTP]
- % Primer Extension ([1]; Primer 1, 5 µM dGTP, one experiment): 5.54%
- % Primer Extension ([1]; Primer 1, 50 µM dGTP, one experiment): 14.06%
- % Primer Extension ([1]; Primer 1, 500 µM dGTP, one experiment): 18.26%
- % Primer Extension ([1]; Primer 2, 5 µM dGTP, one experiment): 20.91%
- % Primer Extension ([1]; Primer 2, 50 µM dGTP, one experiment): 31.85%
- % Primer Extension ([1]; Primer 2, 500 µM dGTP, one experiment): 40.91%
- % Primer Extension ([1]; Primer 3, 5 µM dGTP, one experiment): 2.22%
- % Primer Extension ([1]; Primer 3, 50 µM dGTP, one experiment): 6.90%
- % Primer Extension ([1]; Primer 3, 500 µM dGTP, one experiment): 12.81%
- % Primer Extension ([1]; time course, 50 μM dGTP, primer 2 (GGTTAG)3, 0 minutes): 0.00%
- % Primer Extension ([1]; time course, 50 μM dGTP, primer 2 (GGTTAG)3, 1 minute): 1.70%
- % Primer Extension ([1]; time course, 50 μM dGTP, primer 2 (GGTTAG)3, 3 minutes): 2.22%
- % Primer Extension ([1]; time course, 50 μM dGTP, primer 2 (GGTTAG)3, 5 minutes): 2.61%
- % Primer Extension ([1]; time course, 50 μM dGTP, primer 2 (GGTTAG)3, 9 minutes): 2.82%
- % Primer Extension ([1]; time course, 50 μM dGTP, primer 2 (GGTTAG)3, 15 minutes): 7.50%
- % Primer Extension ([1]; time course, 50 μM dGTP, primer 2 (GGTTAG)3, 30 minutes): 7.57%
- % Primer Extension ([1]; time course, 50 μM dGTP, primer 2 (GGTTAG)3, 45 minutes): 7.80%
- % Primer Extension ([1]; time course, 50 μM dGTP, primer 4 (GTTAGG)3, 0 minutes): 0.00%
- % Primer Extension ([1]; time course, 50 μM dGTP, primer 4 (GTTAGG)3, 1 minute): 1.79%
- % Primer Extension ([1]; time course, 50 μM dGTP, primer 4 (GTTAGG)3, 3 minutes): 0.86%
- % Primer Extension ([1]; time course, 50 μM dGTP, primer 4 (GTTAGG)3, 5 minutes): 1.17%
- % Primer Extension ([1]; time course, 50 μM dGTP, primer 4 (GTTAGG)3, 9 minutes): 1.23%
- % Primer Extension ([1]; time course, 50 μM dGTP, primer 4 (GTTAGG)3, 15 minutes): 1.72%
- % Primer Extension ([1]; time course, 50 μM dGTP, primer 4 (GTTAGG)3, 30 minutes): 4.10%
- % Primer Extension ([1]; time course, 50 μM dGTP, primer 4 (GTTAGG)3, 45 minutes): 8.71%

Compound: Nc1nc2c([nH]c(=O)n2C2CC(O)C(COP(=O)(O)OP(=O)(O)OP(=O)(O)O)O2)c(=O)[nH]1 (stereo not drawn) [8-oxo-dGTP]
- Percent Primer Extension ([1]; Primer 1 (TTAGGG)3, first template base rA3, Mean of three experiments): 10.80%
- % Primer Extension ([1]; Primer 1, 5µM dNTP): 5.20%
- % Primer Extension ([1]; Primer 1, 50µM dNTP): 7.44%
- % Primer Extension ([1]; Primer 1, 500µM dNTP): 8.42%
- Percent Primer Extension [1, 3]: 0.96%
- % Primer Extension ([1]; Primer 2, 5µM dNTP): 0.88%
- % Primer Extension ([1]; Primer 2, 50µM dNTP): 1.37%
- % Primer Extension ([1]; Primer 2, 500µM dNTP): 6.18%
- Percent Primer Extension ([1]; Primer 3 (AGGGTT)3, first template base rU5, Mean of three experiments): 0.00%
- Percent Primer Extension ([1]; Primer 3 (AGGGTT)3, first template base rU5, single experiments n1-n3): 0.00%
- % Primer Extension ([1]; Primer 3, 5µM dNTP): 0.00%
- % Primer Extension ([1]; Primer 3, 50µM dNTP): 0.00%
- % Primer Extension ([1]; Primer 3, 500µM dNTP): 0.00%
- Chain termination after telomerase insertion (in words) ([1]; end-labeled primers, single dNTP): chain-terminating ability
- Effect of POT1-TPP1 on telomerase in presence of analog (in words) [2]: unable to overcome the chain termination

Compound: Cc1cn(C2CC(O)C(COP(=O)(O)OP(=O)(O)OP(=O)(O)O)O2)c(=O)[nH]c1=O (stereo not drawn) [dTTP]
- % Primer Extension ([1]; Primer 1, 5µM dNTP): 30.00%
- % Primer Extension ([1]; Primer 1, 50µM dNTP): 36.00%
- % Primer Extension ([1]; Primer 1, 500µM dNTP): 45.00%
- Percent Primer Extension [1, 3]: 0.00%
- Percent Primer Extension ([1]; Primer 2 (GGTTAG)3, first template base rC1, single experiments n1-n3): 0.00%
- % Primer Extension ([1]; Primer 2, 5µM dNTP): 0.00%
- % Primer Extension ([1]; Primer 2, 50µM dNTP): 0.00%
- % Primer Extension ([1]; Primer 2, 500µM dNTP): 0.00%
- % Primer Extension ([1]; Primer 3, 5µM dNTP): 3.79%
- % Primer Extension ([1]; Primer 3, 50µM dNTP): 9.26%
- % Primer Extension ([1]; Primer 3, 500µM dNTP): 17.69%
